Results taken from patent US20110046131A1, “PURINES AS PKC-THETA INHIBITORS” (N.V. Organon and Pharmacopeia, LLC, priority 2006, published 2011).

What was measured:
Type in all cases: biochemical
[1] = molecular target: T1, SGK kinase (Homo sapiens, UniProt O00141); test: IC50 for SGK kinase (selectivity); conditions: for IC50: read-out: IC50-SGK1
T1 sequence (O00141 1-431): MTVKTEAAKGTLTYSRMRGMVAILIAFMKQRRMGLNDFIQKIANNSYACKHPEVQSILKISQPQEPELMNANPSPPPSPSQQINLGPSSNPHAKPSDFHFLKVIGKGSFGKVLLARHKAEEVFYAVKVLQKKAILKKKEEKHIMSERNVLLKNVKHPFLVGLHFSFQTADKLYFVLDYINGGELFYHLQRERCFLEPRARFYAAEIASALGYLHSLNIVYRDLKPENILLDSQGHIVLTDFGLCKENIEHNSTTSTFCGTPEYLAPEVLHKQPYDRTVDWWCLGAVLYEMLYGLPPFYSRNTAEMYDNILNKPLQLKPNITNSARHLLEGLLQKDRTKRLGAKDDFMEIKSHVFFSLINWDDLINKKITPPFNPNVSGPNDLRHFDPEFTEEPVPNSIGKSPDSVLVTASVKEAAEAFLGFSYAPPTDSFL
Experimental: Entries identified with “1” had values above 250 nM; entries identified with “2” had values above 1 μM; entries identified with “3” had values above 10 μM.

[2] = molecular target: T2, PKC delta (Homo sapiens, UniProt Q05655); test: Ki Pan Vera (PV) potency for PKC delta; conditions: Ki Pan Vera (PV) of PKC delta
T2 construct: purchased Pan Vera
T2 sequence (Q05655 whole entry): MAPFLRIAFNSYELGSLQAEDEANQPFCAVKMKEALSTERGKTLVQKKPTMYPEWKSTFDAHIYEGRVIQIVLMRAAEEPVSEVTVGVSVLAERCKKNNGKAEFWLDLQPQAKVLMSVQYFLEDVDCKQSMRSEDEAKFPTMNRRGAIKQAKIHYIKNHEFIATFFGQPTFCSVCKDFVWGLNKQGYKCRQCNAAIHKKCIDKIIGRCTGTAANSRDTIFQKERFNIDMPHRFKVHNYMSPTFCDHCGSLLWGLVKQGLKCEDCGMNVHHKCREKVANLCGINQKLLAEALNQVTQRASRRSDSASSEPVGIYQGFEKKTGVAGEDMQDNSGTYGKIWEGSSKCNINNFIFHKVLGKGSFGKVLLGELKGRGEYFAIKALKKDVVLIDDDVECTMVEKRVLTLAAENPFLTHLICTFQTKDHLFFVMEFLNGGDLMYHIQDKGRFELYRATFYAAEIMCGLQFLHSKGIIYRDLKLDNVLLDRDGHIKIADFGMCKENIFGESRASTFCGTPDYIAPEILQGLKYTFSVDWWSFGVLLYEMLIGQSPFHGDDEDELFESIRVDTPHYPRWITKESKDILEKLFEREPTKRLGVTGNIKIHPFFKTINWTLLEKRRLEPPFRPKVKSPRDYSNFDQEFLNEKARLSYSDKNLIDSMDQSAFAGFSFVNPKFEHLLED
Experimental: [The source words this procedure for another target and reports this target under the same test.] (§1) For Ki Pan Vera (PV) of PKCθ, entries identified with “A” had values below 100 nM; entries identified with “B” had values below 1 μM; and entries identified with “C” had values below 10 μM.

[3] = molecular target: T3, PKCθ (Homo sapiens, UniProt Q04759); test: Ki Pan Vera (PV) potency for PKCθ; conditions: Ki Pan Vera (PV) of PKCθ
T3 construct: purchased Pan Vera
T3 sequence (Q04759 whole entry): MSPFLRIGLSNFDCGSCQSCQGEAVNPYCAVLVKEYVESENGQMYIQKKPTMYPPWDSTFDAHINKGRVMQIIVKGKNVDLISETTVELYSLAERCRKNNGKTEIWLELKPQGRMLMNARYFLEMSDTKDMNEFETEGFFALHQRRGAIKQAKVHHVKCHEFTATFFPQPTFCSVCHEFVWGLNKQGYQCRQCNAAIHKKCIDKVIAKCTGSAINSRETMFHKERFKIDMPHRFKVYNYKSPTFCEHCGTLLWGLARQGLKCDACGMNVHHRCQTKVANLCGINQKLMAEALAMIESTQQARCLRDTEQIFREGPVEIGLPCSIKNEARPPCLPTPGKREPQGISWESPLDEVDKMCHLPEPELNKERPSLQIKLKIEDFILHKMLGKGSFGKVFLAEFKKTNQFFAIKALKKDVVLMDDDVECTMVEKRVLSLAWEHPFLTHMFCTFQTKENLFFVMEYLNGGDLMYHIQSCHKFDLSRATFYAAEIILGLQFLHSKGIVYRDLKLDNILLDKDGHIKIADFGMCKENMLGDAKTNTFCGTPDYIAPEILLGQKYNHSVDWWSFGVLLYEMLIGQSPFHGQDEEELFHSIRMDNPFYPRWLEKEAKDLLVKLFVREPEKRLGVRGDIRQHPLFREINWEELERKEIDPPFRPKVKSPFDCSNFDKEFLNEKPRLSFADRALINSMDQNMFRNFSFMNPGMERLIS
Experimental: as §1

[4] = molecular target: T4, PKC alpha (Homo sapiens, UniProt P17252); test: Ki Pan Vera (PV) potency for PKC alpha; conditions: Ki Pan Vera (PV) of PKC alpha
T4 construct: purchased Pan Vera
Experimental: [The source words this procedure for another target and reports this target under the same test.] as §1

| Structure (SMILES) | IC50 [1] [µM] | Ki [2] [µM] | Ki [3] [µM] | Ki [4] [µM] | IC50-SGK1 [1] |
| --- | --- | --- | --- | --- | --- |
| Fc1ccccc1CNc1ncc2nc(-c3c(Cl)cccc3Cl)n(C[C@@H]3CCCNC3)c2n1 [Compound 111] | – | – | – | > 1 | Inactive |
| Clc1cccc(Cl)c1C1=Nc2cnc(NCc3ccsc3)nc2C1C[C@@H]1CCCNC1 (stereo partly drawn) [Compound 114] | – | – | – | – | Inactive |
| Fc1ccc(CNc2ncc3c(n2)C(C[C@@H]2CCCNC2)C(c2c(F)cccc2Cl)=N3)cc1 (stereo partly drawn) [Compound 128] | – | > 1 | < 1 | > 1 | Inactive |
| Fc1ccccc1CNc1ncc2c(n1)C(C[C@H]1CCCNC1)C(c1c(Cl)cccc1Cl)=N2 (stereo partly drawn) [Compound 129] | – | > 1 | < 1 | > 1 | Inactive |
| Fc1cccc(Cl)c1-c1nc2cnc(NCc3ccc(Cl)c(Cl)c3)nc2n1C[C@@H]1CCCNC1 [Compound 132] | – | > 1 | < 10 | > 10 | – |
| Clc1cccc(Cl)c1C1=Nc2cnc(NCc3nccs3)nc2C1C[C@@H]1CCCNC1 (stereo partly drawn) [Compound 137] | – | – | – | – | Inactive |
| Fc1ccc(CNc2ncc3nc(-c4c(Cl)cccc4Cl)n(CC4CCNC4)c3n2)cc1Cl (stereo not drawn) [Compound 139] | – | > 1 | < 1 | > 1 | – |
| Fc1ccc(CNc2ncc3nc(-c4c(Cl)cccc4Cl)n(C[C@H]4CCNC4)c3n2)c(F)c1 [Compound 140] | – | > 1 | < 1 | > 1 | – |
| Fc1cccc(Cl)c1-c1nc2cnc(NCc3ccccc3)nc2n1C[C@@H]1CCCNC1 [Compound 145] | – | > 1 | < 1 | > 1 | – |
| NC[C@H]1CC[C@H](n2c(-c3c(Cl)cccc3Cl)nc3cnc(NCc4ccccc4F)nc32)CC1 [Compound 149] | > 10 | > 1 | < 1 | – | – |
| Fc1cccc(CNc2ncc3nc(-c4ccccc4Cl)n(C[C@@H]4CCCNC4)c3n2)c1 [Compound 152] | – | > 1 | < 1 | > 1 | – |
| Clc1cccc(CNc2ncc3nc(-c4c(Cl)cccc4Cl)n(CC4CCNC4)c3n2)c1 (stereo not drawn) [Compound 157] | – | > 1 | < 1 | > 1 | – |
| Fc1ccc(Cl)cc1CNc1ncc2nc(-c3c(Cl)cccc3Cl)n(CC3CCNC3)c2n1 (stereo not drawn) [Compound 159] | – | > 1 | < 1 | > 1 | – |
| Clc1ccc(CNc2ncc3nc(-c4ccccc4Cl)n(C[C@@H]4CCCNC4)c3n2)cc1Cl [Compound 165] | – | > 1 | < 10 | > 10 | – |
| Fc1cccc(Cl)c1-c1nc2cnc(NCc3cccs3)nc2n1C[C@@H]1CCCNC1 [Compound 169] | – | > 1 | < 1 | > 10 | – |
| NC[C@H]1CC[C@H](n2c(-c3ccccc3Cl)nc3cnc(NCc4ccccc4F)nc32)CC1 [Compound 175] | – | > 1 | < 1 | – | Inactive |
| Cc1ccsc1CNc1ncc2nc(-c3c(Cl)cccc3Cl)n(C[C@@H]3CCCNC3)c2n1 [Compound 201] | – | – | – | – | Inactive |
| Clc1cccc(Cl)c1-c1nc2cnc(NCc3cccs3)nc2n1CCC1CCNCC1 [Compound 203] | – | > 1 | < 1 | > 10 | – |
| Fc1ccc(CNc2ncc3nc(-c4c(F)cccc4Cl)n(CC4CCNC4)c3n2)cc1Cl (stereo not drawn) [Compound 204] | – | > 1 | < 1 | > 10 | – |
| Fc1ccc(CNc2ncc3c(n2)C(CC2CNCCO2)C(c2c(F)cccc2Cl)=N3)cc1F (stereo not drawn) [Compound 215] | – | – | – | – | Inactive |
| Fc1ccccc1CNc1ncc2nc(-c3c(Cl)cccc3Cl)n(C[C@@H]3CCNC3)c2n1 [Compound 220] | – | > 1 | < 1 | > 1 | – |
| Fc1ccccc1CNc1ncc2nc(-c3c(Cl)cccc3Cl)n(C3CCNCC3)c2n1 [Compound 221] | – | – | – | – | Inactive |
| NCC1CCC(n2c(-c3cccc(F)c3F)nc3cnc(NCc4ccccc4F)nc32)CC1 (stereo not drawn) [Compound 222] | – | – | – | – | Inactive |
| C[C@H](Nc1ncc2nc(-c3c(F)cccc3Cl)n(C[C@H]3CCNC3)c2n1)c1ccccc1F [Compound 226] | – | > 1 | < 1 | > 1 | – |
| Fc1ccccc1CNc1ncc2nc(-c3cccc(F)c3F)n(CCC3CCNCC3)c2n1 [Compound 238] | – | > 1 | < 1 | > 1 | – |
| Clc1cccc(Cl)c1-c1nc2cnc(NCc3ccccn3)nc2n1CC1CCNC1 (stereo not drawn) [Compound 262] | – | > 1 | < 1 | > 1 | – |

More lines, now with the values ahead:

| IC50 [1] [µM] | Ki [2] [µM] | Ki [3] [µM] | Ki [4] [µM] | IC50-SGK1 [1] | Structure (SMILES) |
| --- | --- | --- | --- | --- | --- |
| > 10 | > 1 | < 0.1 | > 1 | – | Fc1ccc(Cl)cc1CNc1ncc2nc(-c3c(Cl)cccc3Cl)n(C[C@@H]3CCCNC3)c2n1 [Compound 102] |
| – | > 0.25 | < 0.1 | > 1 | – | Fc1cccc(CNc2ncc3nc(-c4c(Cl)cccc4Cl)n(C[C@@H]4CCCNC4)c3n2)c1 [Compound 103] |
| > 10 | > 0.25 | < 0.1 | > 1 | – | Fc1ccc(F)c(CNc2ncc3nc(-c4c(Cl)cccc4Cl)n(C[C@@H]4CCCNC4)c3n2)c1 [Compound 104] |
| – | > 0.25 | < 0.1 | > 1 | Inactive | Fc1ccc(CNc2ncc3nc(-c4c(Cl)cccc4Cl)n(C[C@@H]4CCCNC4)c3n2)cc1 [Compound 105] |
| – | > 1 | < 1 | > 10 | Inactive | Fc1ccc(Cl)cc1CNc1ncc2nc(-c3c(Cl)cccc3Cl)n(C[C@@H]3CCCNC3)c2n1 [Compound 106] |
| – | > 1 | < 1 | > 10 | – | Clc1ccc(CNc2ncc3nc(-c4c(Cl)cccc4Cl)n(C[C@@H]4CCCNC4)c3n2)cc1Cl [Compound 107] |
| – | > 1 | < 1 | > 1 | Inactive | Fc1ccc(CNc2ncc3nc(-c4c(F)cccc4Cl)n(C[C@@H]4CCCNC4)c3n2)cc1Cl [Compound 108] |
| – | > 1 | < 0.1 | > 1 | Inactive | Fc1ccc(CNc2ncc3nc(-c4c(Cl)cccc4Cl)n(C[C@@H]4CCCNC4)c3n2)c(F)c1 [Compound 109] |
| > 1 | > 1 | < 0.1 | > 1 | – | Fc1ccccc1CNc1ncc2nc(-c3c(Cl)cccc3Cl)n(C[C@@H]3CCCNC3)c2n1 [Compound 110] |
| > 10 | > 1 | < 1 | > 10 | – | Fc1ccc(Cl)cc1CNc1ncc2nc(-c3c(F)cccc3Cl)n(C[C@@H]3CCCNC3)c2n1 [Compound 115] |
| – | > 1 | < 1 | > 10 | Inactive | C[C@H](Nc1ncc2nc(-c3c(Cl)cccc3Cl)n(C[C@@H]3CCCNC3)c2n1)c1ccccc1F [Compound 116] |
| – | > 1 | < 1 | > 1 | Inactive | Fc1ccccc1CNc1ncc2nc(-c3c(Cl)cccc3Cl)n(CC3CCCNC3)c2n1 (stereo not drawn) [Compound 117] |
| > 10 | > 1 | < 1 | > 1 | – | Fc1ccc(CNc2ncc3nc(-c4c(Cl)cccc4Cl)n(CCC4CCNCC4)c3n2)cc1F [Compound 118] |
| – | > 1 | < 0.1 | > 1 | – | Clc1cccc(Cl)c1-c1nc2cnc(NCc3cccs3)nc2n1C[C@@H]1CCCNC1 [Compound 119, (R)-8-(2,6-dichlorophenyl)-9-(piperidin-3-ylmethyl)-N-(thiophen-2-ylmethyl)-9H-purin-2-amine] |
| – | > 1 | < 0.1 | > 1 | Inactive | Fc1ccc(CNc2ncc3nc(-c4c(Cl)cccc4Cl)n(C[C@H]4CCNC4)c3n2)cc1F [Compound 121] |
| – | > 1 | < 1 | > 10 | Inactive | NCCCCCCn1c(-c2c(Cl)cccc2Cl)nc2cnc(NCc3ccccc3F)nc21 [Compound 122] |
| – | > 1 | < 1 | > 1 | – | Fc1cccc(CNc2ncc3nc(-c4c(F)cccc4Cl)n(C[C@@H]4CCCNC4)c3n2)c1 [Compound 123] |
| > 10 | > 1 | < 1 | > 1 | – | Fc1ccc(F)c(CNc2ncc3nc(-c4c(F)cccc4Cl)n(C[C@@H]4CCCNC4)c3n2)c1 [Compound 124] |
| – | > 1 | < 1 | > 1 | Inactive | Fc1ccc(F)c(CNc2ncc3nc(-c4c(Cl)cccc4Cl)n(C[C@H]4CCNC4)c3n2)c1 [Compound 125] |
| > 1 | > 1 | < 1 | > 1 | – | Fc1cccc(CNc2ncc3nc(-c4c(Cl)cccc4Cl)n(CCC4CCNCC4)c3n2)c1 [Compound 126] |
| – | > 1 | < 1 | > 1 | Inactive | Fc1cccc(CNc2ncc3nc(-c4c(Cl)cccc4Cl)n(C[C@H]4CCNC4)c3n2)c1 [Compound 127] |
